Several values for one entry are separate records, joined by “and”; a condition that tells them apart may be missing. Equal entries are not always repeated.

The test system of this assay is Swiss mice, Sarcoma 180 sc, mean tumor weight T/C. In words: NCI In Vivo Anticancer Drug Screen. Data for tumor model Sarcoma 180 (subcutaneous) in Swiss mice. To be noted: endpoint: mean tumor weight, higher = larger tumour. An outline of the steps:
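Readout is the ratio of treated-group measurement to vehicle-control measurement (T/C), based on survival or tumor size in mice carrying transplanted tumors.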

[1] abbreviates: dose: 3.5 mg/kg/injection, schedule: Q01DX007 (ip), vehicle: carboxymethylcellulose (CMC).

On to `C[C@]12CC[C@@H]3c4ccc(OC5CCCCO5)cc4CC[C@H]3[C@@H]1CC[C@@H]2O` (stereo not given in full), for which the T/C runs as follows: (dose: 111.0 mg/kg/injection, schedule: Q01DX007 (ip), vehicle: steriod suspending solution) 55 % of control; (dose: 166.6 mg/kg/injection, schedule: Q01DX007 (ip), vehicle: steriod suspending solution) 20 % of control; (dose: 250.0 mg/kg/injection, schedule: Q01DX007 (ip), vehicle: steriod suspending solution) 24 % of control; (dose: 375.0 mg/kg/injection, schedule: Q01DX007 (ip), vehicle: steriod suspending solution) 17 % of control.

Regarding `CCOC(=O)Sc1ncnc2nc[nH]c12`, the T/C reads like this: (dose: 1.7 mg/kg/injection, schedule: Q01DX007 (ip), vehicle: carboxymethylcellulose (CMC)) 109 % of control; under setting [1], 84 % of control; (dose: 7.0 mg/kg/injection, schedule: Q01DX007 (ip), vehicle: carboxymethylcellulose (CMC)) 102 % of control; (dose: 14.0 mg/kg/injection, schedule: Q01DX007 (ip), vehicle: carboxymethylcellulose (CMC)) 41 % of control; (dose: 28.0 mg/kg/injection, schedule: Q01DX007 (ip), vehicle: carboxymethylcellulose (CMC)) 46 % of control; (dose: 44.0 mg/kg/injection, schedule: Q01DX007 (ip), vehicle: carboxymethylcellulose (CMC)) 56 % of control. Also, the T/C is, setting by setting: (dose: 56.0 mg/kg/injection, schedule: Q01DX007 (ip), vehicle: carboxymethylcellulose (CMC)) 30 % of control; (dose: 66.0 mg/kg/injection, schedule: Q01DX007 (ip), vehicle: carboxymethylcellulose (CMC)) 61 % of control; (dose: 100.0 mg/kg/injection, schedule: Q01DX007 (ip), vehicle: carboxymethylcellulose (CMC)) 35 % of control; (dose: 112.0 mg/kg/injection, schedule: Q01DX007 (ip), vehicle: carboxymethylcellulose (CMC)) 22 % of control; (dose: 150.0 mg/kg/injection, schedule: Q01DX007 (ip), vehicle: carboxymethylcellulose (CMC)) 30 % of control.

Take `O=C(NNC(=O)c1cccc2ccccc12)c1cc(Br)ccc1Br`: the T/C was 53 % of control (dose: 222.0 mg/kg/injection, schedule: Q01DX007 (ip), vehicle: carboxymethylcellulose (CMC)); 65 % of control (dose: 333.0 mg/kg/injection, schedule: Q01DX007 (ip), vehicle: carboxymethylcellulose (CMC)); 26 % of control (dose: 500.0 mg/kg/injection, schedule: Q01DX007 (ip), vehicle: carboxymethylcellulose (CMC)); 37 % of control (dose: 750.0 mg/kg/injection, schedule: Q01DX007 (ip), vehicle: carboxymethylcellulose (CMC)).

Turning to `CN(C)C1C(=O)C(C(N)=O)=C(O)C2(O)C(=O)C3=C(O)c4c(O)cccc4C(C)(O)C3C(O)C12` (stereo not given), the T/C was 98 % of control (dose: 15.12 mg/kg/injection, schedule: Q01DX007 (ip), vehicle: carboxymethylcellulose (CMC)); 111 % of control (dose: 17.5 mg/kg/injection, schedule: Q01DX007 (ip), vehicle: carboxymethylcellulose (CMC)); 124 % of control (dose: 31.25 mg/kg/injection, schedule: Q01DX007 (ip), vehicle: carboxymethylcellulose (CMC)); 105 % of control (dose: 35.0 mg/kg/injection, schedule: Q01DX007 (ip), vehicle: carboxymethylcellulose (CMC)); 117 % of control (dose: 62.5 mg/kg/injection, schedule: Q01DX007 (ip), vehicle: carboxymethylcellulose (CMC)); 102 % of control (dose: 70.0 mg/kg/injection, schedule: Q01DX007 (ip), vehicle: carboxymethylcellulose (CMC)). Besides, the T/C reads like this: (dose: 125.0 mg/kg/injection, schedule: Q01DX007 (ip), vehicle: carboxymethylcellulose (CMC)) 50 % of control; (dose: 140.0 mg/kg/injection, schedule: Q01DX007 (ip), vehicle: carboxymethylcellulose (CMC)) 79 % of control.

With `NNC(=O)NC(=O)NN`, the T/C (dose: 9.5 mg/kg/injection, schedule: Q01DX007 (ip), vehicle: carboxymethylcellulose (CMC)) is 91 % of control; the T/C (dose: 19.0 mg/kg/injection, schedule: Q01DX007 (ip), vehicle: carboxymethylcellulose (CMC)) was 124 % of control; the T/C (dose: 38.0 mg/kg/injection, schedule: Q01DX007 (ip), vehicle: carboxymethylcellulose (CMC)) was 111 % of control; the T/C (dose: 76.0 mg/kg/injection, schedule: Q01DX007 (ip), vehicle: carboxymethylcellulose (CMC)) was 69 % of control.

Consider `Nc1nc(=S)c2ncn(C3CCCO3)c2[nH]1` (stereo not given), for which the T/C is 43 % of control and 46 % of control (dose: 20.0 mg/kg/injection, schedule: Q01DX007 (ip), vehicle: carboxymethylcellulose (CMC)); 18 % of control and 38 % of control (dose: 45.0 mg/kg/injection, schedule: Q01DX007 (ip), vehicle: carboxymethylcellulose (CMC)); 9 % of control (dose: 90.0 mg/kg/injection, schedule: Q01DX007 (ip), vehicle: carboxymethylcellulose (CMC)).

Take `CC(C)(S)C(N)C(=O)O` (stereo not given): the T/C reads like this: (dose: 500.0 mg/kg/injection, schedule: Q01DX007 (oral), vehicle: saline) 122 % of control; (dose: 1000.0 mg/kg/injection, schedule: Q01DX007 (oral), vehicle: saline) 118 % of control.

As to `CCCCCCCCCCCCCCCCCCNC(=S)N/N=C/c1ccc(Cl)cc1Cl`, the T/C (dose: 65.0 mg/kg/injection, schedule: Q#A X014 (ip), vehicle: methylcellulose (MC)) is 35 % of control and 53 % of control.

Consider `S=P(N1CC1)(N1CC1)N1CC1`, for which the T/C was 91 % of control (dose: 0.43 mg/kg/injection, schedule: Q01DX007 (ip), vehicle: carboxymethylcellulose (CMC)); 85 % of control (dose: 0.87 mg/kg/injection, schedule: Q01DX007 (ip), vehicle: carboxymethylcellulose (CMC)); 104 % of control (dose: 1.75 mg/kg/injection, schedule: Q01DX007 (ip), vehicle: carboxymethylcellulose (CMC)); 65 % of control under setting [1]; 108 % of control (dose: 218.5 mg/kg/injection, schedule: Q#A X014 (ip), vehicle: carboxymethylcellulose (CMC)); 110 % of control (dose: 437.5 mg/kg/injection, schedule: Q#A X014 (ip), vehicle: carboxymethylcellulose (CMC)). For the same compound, the T/C (dose: 875.0 mg/kg/injection, schedule: Q#A X014 (ip), vehicle: carboxymethylcellulose (CMC)) is 46 % of control.

Turning to `O=C(O)CCC(=O)CCl`, the T/C is, setting by setting: (dose: 6.2 mg/kg/injection, schedule: Q01DX007 (ip), vehicle: saline) 76 % of control; (dose: 9.3 mg/kg/injection, schedule: Q01DX007 (ip), vehicle: saline) 57 % of control; (dose: 14.0 mg/kg/injection, schedule: Q01DX007 (ip), vehicle: saline) 57 % of control; (dose: 21.0 mg/kg/injection, schedule: Q01DX007 (ip), vehicle: saline) 46 % of control and 55 % of control; (dose: 30.0 mg/kg/injection, schedule: Q01DX007 (ip), vehicle: saline) 31 % of control.

Turning to `NCC(=O)O.[Zn+2]`, the T/C (dose: 1.25 mg/kg/injection, schedule: Q01DX007 (iv), vehicle: water) is 99 % of control; the T/C (dose: 2.5 mg/kg/injection, schedule: Q01DX007 (iv), vehicle: water) is 83 % of control; the T/C (dose: 5.0 mg/kg/injection, schedule: Q01DX007 (iv), vehicle: water) is 113 % of control; the T/C (dose: 10.0 mg/kg/injection, schedule: Q01DX007 (iv), vehicle: water) was 95 % of control.

Regarding `N#[N+]c1n[nH]nc1C(N)=O`, the T/C reads like this: (dose: 12.5 mg/kg/injection, schedule: Q01DX007 (ip), vehicle: carboxymethylcellulose (CMC)) 114 % of control; (dose: 25.0 mg/kg/injection, schedule: Q01DX007 (ip), vehicle: carboxymethylcellulose (CMC)) 74 % of control.

The T/C is the ratio of treated to control.
